Assay [1] has as its system streptococcal strain D471 adherence to Detroit 562 pharyngeal cells. The format is cell-based, S. pyogenes.
For assay [2], the system named is strain JRS75 adherence to Detroit 562 pharyngeal cells. As to the kind of experiment: Pharyngeal cell adherence assay with isogenic M-negative mutant. It counts as cell-based, S. pyogenes. As to conditions: bacteria preincubated with sialic acid. The protocol:
Pharyngeal cell adherence and invasion assay. Streptococcal adherence to and invasion of the human pharyngeal cell line, Detroit 562, was assayed by modification of a procedure described previously (Talbot, U. M., et al., Infect. Immun. 64:3772-3777, 1996). Overnight cultures of streptococci were pelleted by centrifugation and washed twice in sterile PBS. The cultures were resuspended in MEM and diluted to a final concentration of 5×10^7 CFU/ml, and 1 ml aliquots were inoculated into each well containing washed Detroit cell monolayers. At least 3 wells were used for each bacterial strain or culture condition. Following a 3 h incubation period with the bacteria at 37° C., the monolayers were washed three times in PBS.
For the bacterial invasion assay, 1 ml of MEM supplemented with penicillin (10 μg/ml) and gentamicin (200 μg/ml) was added to each well (to kill extracellular bacteria) and incubated for 1 h at 37° C. […] The total number of adherent streptococci was calculated as the difference between the total number of adherent and invasive bacteria and the number of invasive bacteria alone.
Effect of monosaccharides on streptococcal adherence to pharyngeal cells. The effect of various monosaccharides on streptococcal adherence to pharyngeal cell monolayers was assessed in inhibition assays. […]

For `CC(=O)N[C@H]1[C@H]([C@H](O)[C@H](O)CO)O[C@@](O[C@H]2[C@@H](O)[C@@H](CO)O[C@@H](O[C@H]3[C@H](O)[C@@H](O)C(O)O[C@@H]3CO)[C@@H]2O)(C(=O)O)C[C@@H]1O` (stereo partly drawn) [3′SL, NeuAcα2-3Galβ1-4Glc], in assay [1], the “effect on adherence of strain D471 to cultured pharyngeal cells” value is “no significant effect”.

As to `CC(=O)NC1C(O)CC(OCC2OC(OC3C(CO)OC(O)C(O)C3O)C(O)C(O)C2O)(C(=O)O)OC1C(O)C(O)CO` (stereo not drawn) [6′SL, NeuACα2-6Galβ1-4Glc], in assay [1], the “reduced binding of strain D471 to pharyngeal cells” value is “approximately 85%”.

On to `CC(=O)N[C@H]1[C@H]([C@H](O)[C@H](O)CO)OC(O)(C(=O)O)C[C@@H]1O` (stereo partly drawn) [sialic acid, N-acetylneuraminic acid], for which the “effect on adherence of strain D471 to pharyngeal cells” value in assay [1] is given as “significantly decreased”. For the same molecule, the “effect on adherence of JRS75 (M-negative mutant) to pharyngeal cells” value in assay [2] is “not affected”.

In the case of “transferrin: sialylated glycoprotein whose oligosaccharides terminate only in α2-6 linked sialic acid”, the “reduced adherence of strain D471 to cultured pharyngeal cells” value in assay [1] is “approximately 90%”.

B1: Fetuin: sialylated glycoprotein containing both α2-3 and α2-6 sialic acid linkages (protein, UniProt P12763 19-359, looked up)
Alpha-2-HS-glycoprotein: IPLDPVAGYKEPACDDPDTEQAALAAVDYINKHLPRGYKHTLNQIDSVKVWPRRPTGEVYDIEIDTLETTCHVLDPTPLANCSVRQQTQHAVEGDCDIHVLKQDGQFSVLFTKCDSSPDSAEDVRKLCPDCPLLAPLNDSRVVHAVEVALATFNAESNGSYLQLVEISRAQFVPLPVSVSVEFAVAATDCIAKEVVDPTKCNLLAEKQYGFCKGSVIQKALGGEDVRVTCTLFQTQPVIPQPQPDGAEAEAPSAVPDAAGPTPSAAGPPVASVVVGPSVVAVPLPLHRAHYDLRHTFSGVASVESSSGEAFHVGKTPIVGQPSIPGGPVRLCPGRIRYFKI
For B1, the “decrease of adherence of strain D471 to pharyngeal cells” value in assay [1] is recorded as “approximately 30%”.

For the origin of these results see US20060073154A1 (priority 2001, published 2006).
